The source of these data is PubChem BioAssay (NCI).

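Values below derive from 48-hour exposures of cells grown in 96-well plates, with endpoints linearly interpolated between the two concentrations bracketing the appropriate inhibition level. At the TGI there is no net growth.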 Where only a bound is given, the exact number is not on record here.

Test systems include HOP-92 NSCLC; NCI/ADR-RES ovarian; HCC-2998 colon; SN12C renal; SK-MEL-28 melanoma; NCI-H23 lung; CCRF-CEM leukemia; UO-31 renal; HT29 colon; SNB-19 CNS.
Common to all, as to assay: NCI anticancer screen, dose series, 48 h

On to `CN(C)CCn1c(=O)c2ccc(NCCN3CCNCC3)c3c(=O)c4ccccc4n(c1=O)c23`, for which the TGI with HOP-92 NSCLC is 9.59 µM; with NCI/ADR-RES ovarian, 30 µM; in the assay on HCC-2998 colon, 12.8 µM; in the assay on SN12C renal, 14.6 µM; in the assay with SK-MEL-28 melanoma, 25.5 µM; in the assay on NCI-H23 lung, 16.8 µM. Also, the TGI is 4.4 µM in the assay with CCRF-CEM leukemia, 17.9 µM with UO-31 renal, 18.8 µM in the assay with HT29 colon and 23.9 µM in the assay on SNB-19 CNS.
On to `NC(=O)Cc1nc2c(N)ncnc2n1C1OC(CO)C(O)C1O` (configuration not stated), for which the TGI with HOP-92 NSCLC, with NCI/ADR-RES ovarian, in the assay with HCC-2998 colon, in the assay on SN12C renal, in the assay with SK-MEL-28 melanoma and with NCI-H23 lung was > 100 µM throughout. Moreover, the TGI in the assay with CCRF-CEM leukemia, in the assay with UO-31 renal, with HT29 colon and with SNB-19 CNS was > 100 µM each time.
As for `CCOC(=O)C(Cc1ccc(OC(=O)c2ccc(OC)cc2)cc1)NC(=O)C(F)(F)F` (configuration not stated), the TGI with HOP-92 NSCLC, in the assay with NCI/ADR-RES ovarian, with HCC-2998 colon, with SN12C renal, with NCI-H23 lung and in the assay on CCRF-CEM leukemia was > 100 µM each time. The TGI in the assay on UO-31 renal, in the assay on HT29 colon and in the assay on SNB-19 CNS was > 100 µM each time.
`CC(C)NC(=O)OCc1c(CO)c2c(n1C)-c1ccccc1CC2`: the TGI in the assay with HOP-92 NSCLC is 53.7 µM; in the assay with NCI/ADR-RES ovarian it was 61.4 µM; in the assay with HCC-2998 colon it was 57.4 µM; in the assay on SN12C renal, 59.8 µM; with SK-MEL-28 melanoma, 64.4 µM; in the assay on NCI-H23 lung, > 65.1 µM. The TGI in the assay with CCRF-CEM leukemia is 45.2 µM; in the assay with UO-31 renal, 71.4 µM; with HT29 colon, 54.5 µM; in the assay on SNB-19 CNS, > 100 µM.
As for `CCOC(=O)C1c2[nH]c3ccccc3c2CCN1C(=O)c1ccc(OC)o1` (configuration not stated), the TGI with HOP-92 NSCLC, with NCI/ADR-RES ovarian, in the assay with HCC-2998 colon, with SN12C renal, with SK-MEL-28 melanoma and in the assay with NCI-H23 lung was > 10 µM in each case. For the same compound, the TGI in the assay with CCRF-CEM leukemia, in the assay on UO-31 renal, in the assay on HT29 colon and in the assay with SNB-19 CNS was > 10 µM each time.
For `OC(c1ccc(C(F)(F)F)cc1)C(F)(F)c1nc2ccccc2o1` (configuration not stated), the TGI with HOP-92 NSCLC, with NCI/ADR-RES ovarian, in the assay with HCC-2998 colon, in the assay with SK-MEL-28 melanoma, in the assay on NCI-H23 lung and in the assay with CCRF-CEM leukemia was > 100 µM each time. Also, the TGI in the assay on UO-31 renal, in the assay on HT29 colon and with SNB-19 CNS was > 100 µM each time.
For the compound `O=C1C(=O)N(c2cccc(C(F)(F)F)c2)C(=S)N1c1ccccc1`, the TGI in the assay on HOP-92 NSCLC is 50.7 µM; in the assay on NCI/ADR-RES ovarian, > 100 µM; in the assay on HCC-2998 colon, > 100 µM; in the assay on SN12C renal, > 100 µM; in the assay with SK-MEL-28 melanoma it was 88.8 µM; in the assay with NCI-H23 lung, 82.9 µM. Besides, the TGI was > 100 µM in the assay with CCRF-CEM leukemia, 86.5 µM in the assay on UO-31 renal, > 100 µM with HT29 colon and > 100 µM with SNB-19 CNS.
Consider `COc1ccc(/C=C2\CCS(=O)(=O)c3ccccc3C2=O)cc1`, for which the TGI is 71.7 µM in the assay with HOP-92 NSCLC; 50 µM in the assay with NCI/ADR-RES ovarian; 38.6 µM in the assay on HCC-2998 colon; 77.3 µM in the assay on SN12C renal; 72 µM in the assay on SK-MEL-28 melanoma; 47.6 µM with NCI-H23 lung. Also, the TGI with CCRF-CEM leukemia worked out at 68.5 µM; with UO-31 renal, 38 µM; in the assay with HT29 colon, 35.9 µM; in the assay with SNB-19 CNS, 70.6 µM.
For `COC(=O)C1(C#N)C(C)(C)N=C(c2ccccc2)C12CCCCC2` (configuration not stated), the TGI with HOP-92 NSCLC, in the assay on NCI/ADR-RES ovarian, with HCC-2998 colon, in the assay with SN12C renal, in the assay on SK-MEL-28 melanoma and with NCI-H23 lung was > 100 µM each time. Besides, the TGI with CCRF-CEM leukemia, in the assay on UO-31 renal, in the assay with HT29 colon and in the assay with SNB-19 CNS was > 100 µM throughout.
Regarding `CCCCCCCCCCCCCCCCCCNC(=S)/N=C\C1=C(O)c2ccccc2C1=O`, the TGI in the assay on HOP-92 NSCLC is 14.1 µM; in the assay with NCI/ADR-RES ovarian it was 31.7 µM; in the assay with HCC-2998 colon, 6.4 µM; in the assay on SN12C renal it was 31.1 µM; in the assay on SK-MEL-28 melanoma, 30.7 µM; in the assay on NCI-H23 lung, 31.9 µM. In addition, the TGI in the assay with CCRF-CEM leukemia is 21.5 µM; in the assay on UO-31 renal, 23.3 µM; in the assay with HT29 colon, 25 µM; in the assay on SNB-19 CNS, 35.9 µM.
Turning to `O=[N+]([O-])C(=C(N1CCOCC1)N1CCOCC1)/C(Cl)=C(\Cl)Br`, the TGI is 31 µM with HOP-92 NSCLC; 52.9 µM in the assay on NCI/ADR-RES ovarian; > 100 µM in the assay on HCC-2998 colon; 31.7 µM with SN12C renal; 33.8 µM in the assay with SK-MEL-28 melanoma; 34.1 µM in the assay with NCI-H23 lung. Also, the TGI in the assay with CCRF-CEM leukemia is 9.49 µM; in the assay on UO-31 renal, 43.4 µM; in the assay on HT29 colon, 44.9 µM; with SNB-19 CNS, > 100 µM.
As to `Cc1cc(Cc2cc(C)c(NC(=O)C(=O)C3CCC4=C(SC5C=CC=CC5N4)C3=O)c(C(C)C)c2)cc(C(C)C)c1NC(=O)C(=O)C1CCC2=C(SC3C=CC=CC3N2)C1=O` (configuration not stated), the TGI with HOP-92 NSCLC, in the assay on NCI/ADR-RES ovarian, in the assay on HCC-2998 colon, in the assay with SN12C renal, with SK-MEL-28 melanoma and with NCI-H23 lung was > 100 µM each time. The TGI in the assay with CCRF-CEM leukemia, in the assay on UO-31 renal and in the assay with HT29 colon was > 100 µM throughout.
For the compound `Cn1c(=O)c2c(nc3n2CCCC(=O)N3CC(O)CCl)n(C)c1=O` (configuration not stated), the TGI with HOP-92 NSCLC, with NCI/ADR-RES ovarian, with HCC-2998 colon, in the assay with SN12C renal, in the assay with SK-MEL-28 melanoma and in the assay with NCI-H23 lung was > 100 µM throughout. The TGI with CCRF-CEM leukemia, in the assay with UO-31 renal, in the assay with HT29 colon and in the assay on SNB-19 CNS was > 100 µM in each case.
